Measured values from paper PMC13266999, “Designing Antibiotics with Inherent Resistance to Efflux as a Strategy to Revive Discovery against Multidrug-Resistant Pathogens” (Journal of Medicinal Chemistry, 2026).
Values after ≈ are worked out from the molar mass of the structure shown. Read-outs that look alike come from different tables or passages of the source.

Columns and labels:
S. aureus = assay: MIC (microbroth dilution); type: cell-based, Staphylococcus aureus; conditions: for MIC: Staphylococcus aureus
How it was run: (§1)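 Broth microdilution MICs, defined as lowest compound level without visible growth (OD600 read), on bacteria grown overnight to stationary phase then diluted. Twofold compound dilutions; some wells also received PMBN, final 30 μg/mL, to permeabilize the outer membrane.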

CYP2C9 = CYP2C9 (Homo sapiens, UniProt P11712); assay: CYP inhibition; conditions: human, human liver microsomes, probe diclofenac, CYP2C9 inhibition, HLM, diclofenac substrate
Protocol: (§2) Cytochrome P450 inhibition was assessed in vitro using human recombinant enzymes in microsomal preparations. […] Enzyme activity was quantified by monitoring formation of substrate-specific metabolites, and percent inhibition was calculated relative to vehicle control.

S. dysgalactiae = assay: MIC (microbroth dilution); type: cell-based; conditions: for MIC: Streptococcus dysgalactiae
How it was run: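 Microbroth dilution in tryptic soy broth; Streptococcus spp. in cation-adjusted Mueller Hinton broth with 2.5% lysed horse blood, inocula from overnight stationary-phase cultures. MIC is lowest concentration without visible growth, OD600 read. Parallel MICs run with 30 μg/mL polymyxin B nonapeptide (final) as outer-membrane permeabilizer.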

AR (h) = assay: SafetyScreen44; parameters: species or system human; conditions: agonist radioligand, specific binding, 1.0E-05 M
Protocol: Off-target pharmacology was evaluated using the Eurofins SafetyScreen44 in vitro panel. […] Binding assays were performed using radioligand displacement, and enzyme or uptake assays measured inhibition of control activity using validated detection methods (scintillation counting, fluorimetry or photometry). Responses were expressed as percent inhibition of control binding or activity. Based on Eurofins interpretation guidelines, effects ≥50% were considered significant, effects between 25% and 50% weak to moderate, and effects <25% were not considered biologically relevant.

K. pneumoniae = assay: MIC (microbroth dilution); type: cell-based, Klebsiella pneumoniae; conditions: Klebsiella pneumoniae, read-out: MIC
How it was run: as §1

CYP2C8 = CYP2C8 (Homo sapiens, UniProt P10632); assay: CYP inhibition; conditions: human, human liver microsomes, probe amodiaquine, CYP2C8 inhibition, HLM, amodiaquine substrate
CYP2C8, sequence (P10632 whole entry): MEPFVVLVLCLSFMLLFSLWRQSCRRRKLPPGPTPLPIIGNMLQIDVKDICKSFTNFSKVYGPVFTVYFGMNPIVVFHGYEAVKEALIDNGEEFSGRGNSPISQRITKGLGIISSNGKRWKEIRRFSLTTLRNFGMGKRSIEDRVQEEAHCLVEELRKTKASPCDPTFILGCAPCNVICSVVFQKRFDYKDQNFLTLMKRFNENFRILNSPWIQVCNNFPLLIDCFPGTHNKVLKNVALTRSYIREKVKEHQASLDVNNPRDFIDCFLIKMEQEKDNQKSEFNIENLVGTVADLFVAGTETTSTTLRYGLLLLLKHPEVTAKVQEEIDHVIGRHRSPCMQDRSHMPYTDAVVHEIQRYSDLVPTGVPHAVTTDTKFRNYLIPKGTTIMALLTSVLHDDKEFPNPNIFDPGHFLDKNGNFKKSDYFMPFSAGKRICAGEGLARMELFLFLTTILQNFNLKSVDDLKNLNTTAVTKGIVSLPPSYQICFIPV
Protocol: as §2

CYP2C9, sequence (P11712 whole entry): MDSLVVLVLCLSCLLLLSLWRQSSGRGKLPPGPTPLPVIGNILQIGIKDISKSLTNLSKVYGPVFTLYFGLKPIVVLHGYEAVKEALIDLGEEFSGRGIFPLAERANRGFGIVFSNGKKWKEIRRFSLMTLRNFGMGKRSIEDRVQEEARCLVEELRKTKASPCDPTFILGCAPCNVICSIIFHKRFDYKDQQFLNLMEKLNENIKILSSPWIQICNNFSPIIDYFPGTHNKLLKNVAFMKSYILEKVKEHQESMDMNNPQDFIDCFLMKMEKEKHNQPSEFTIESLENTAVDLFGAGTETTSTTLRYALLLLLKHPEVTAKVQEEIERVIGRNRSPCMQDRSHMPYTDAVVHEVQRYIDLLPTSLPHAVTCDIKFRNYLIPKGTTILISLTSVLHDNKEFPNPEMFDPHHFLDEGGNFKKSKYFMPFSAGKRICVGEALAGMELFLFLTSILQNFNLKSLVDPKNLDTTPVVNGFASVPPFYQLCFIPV

Cc1cc(C)nc(N[C@@H]2CCN(c3c(F)cc4c(=O)c(C(=O)O)cn5c4c3OC[C@@H]5C)C2)n1 [Compound 50, (S)-10-((R)-3-((4,6-Dimethylpyrimidin-2-yl)amino)pyrrolidin-1-yl)-9-fluoro-3-methyl-7-oxo-2,3-dihydro-7H-[1,4]oxazino[2,3,4-ij]quinoline-6-carboxylic acid]
MIC (S. aureus; MRSA / USA400, USA400 MRSA (MW2), read-out: MIC): 0.03 µg/mL (≈ 0.0662 µM)
MIC (S. aureus; MRSA / VISA, MRSA VISA (CDC #0219), read-out: MIC): 4 µg/mL (≈ 8.82 µM)
MIC (S. aureus; MRSA / VISA, MRSA VISA (CDC #0220), read-out: MIC): 1 µg/mL (≈ 2.21 µM)
MIC (S. aureus; MRSA / VISA, MRSA VISA (CDC #0221), read-out: MIC): 0.5 µg/mL (≈ 1.1 µM)
MIC (S. aureus; MRSA / VISA, MRSA VISA (CDC #0223), read-out: MIC): 1 µg/mL (≈ 2.21 µM)
MIC (S. aureus; MRSA / VISA, MRSA VISA (CDC #0225), read-out: MIC): 1 µg/mL (≈ 2.21 µM)
MIC (S. aureus; MRSA / VISA, MRSA VISA (CDC #0226), read-out: MIC): 0.03 µg/mL (≈ 0.0662 µM)
MIC (S. aureus; MRSA / VISA, MRSA VISA (CDC #0227), read-out: MIC): 1 µg/mL (≈ 2.21 µM)
MIC (S. aureus; MRSA / VISA, MRSA VISA (CDC AR-BANK #0215), read-out: MIC): 16 µg/mL (≈ 35.3 µM)
MIC (S. aureus; MRSA / VISA, MRSA VISA (CDC AR-BANK #0216), read-out: MIC): 0.5 µg/mL (≈ 1.1 µM)
MIC (S. aureus; MRSA / VISA, MRSA VISA (CDC AR-BANK #0217), read-out: MIC): 1 µg/mL (≈ 2.21 µM)
MIC (S. aureus; MRSA / VISA, MRSA VISA (Mu50), read-out: MIC): 2 µg/mL (≈ 4.41 µM)
MIC (S. aureus; MRSA / VISA, MRSA VISA Mupirocin-R (CDC #0218), read-out: MIC): 1 µg/mL (≈ 2.21 µM)
MIC (S. aureus; MRSA, MRSA DAP-NS (ECL 2963621), read-out: MIC): 0.25 µg/mL (≈ 0.551 µM)
MIC (S. aureus; MRSA, VanA MRSA (VRS1), read-out: MIC): 1 µg/mL (≈ 2.21 µM)
MIC (S. aureus; MRSA, VanA MRSA (VRS2), read-out: MIC): 0.5 µg/mL (≈ 1.1 µM)
MIC (S. aureus; MRSA, VanA MRSA (VRS3a), read-out: MIC): 0.5 µg/mL (≈ 1.1 µM)
MIC (S. aureus; MSSA / VISA, MSSA VISA (CDC #0222), read-out: MIC): 0.03 µg/mL (≈ 0.0662 µM)
MIC (S. aureus; NCTC13277, NCTC 13277, + 4% albumin, read-out: MIC): 4 µg/mL
MIC (S. aureus; NCTC13616, NCTC 13616, + 4% albumin, read-out: MIC): 2 µg/mL
MIC (S. aureus; NRS 3 / VISA, VISA (NRS3), read-out: MIC): 0.5 µg/mL (≈ 1.1 µM)
MIC (S. aureus; NRS 12 / VISA, VISA (NRS12), read-out: MIC): 0.06 µg/mL (≈ 0.132 µM)
MIC (S. aureus; NRS 56 / VISA, VISA (NRS56), read-out: MIC): 1 µg/mL (≈ 2.21 µM)
MIC (S. aureus; NRS72, Sanger-476, NRS72, read-out: MIC): 0.03 µg/mL (≈ 0.0662 µM)
MIC (S. aureus; NRS157, NRS157, read-out: MIC): 0.03 µg/mL (≈ 0.0662 µM)
MIC (S. aureus; SA-1199, read-out: MIC): 0.016 µg/mL (≈ 0.0353 µM)
MIC (S. aureus; SA-1199B (NorA-overexpressing)): 0.016 µg/mL (≈ 0.0353 µM)
MIC (S. aureus; VRSA, VRSA (ECL 2963646), read-out: MIC): 0.5 µg/mL (≈ 1.1 µM)
MIC (S. aureus; VanA (VRS11b), read-out: MIC): 2 µg/mL (≈ 4.41 µM)
MIC (S. aureus; majority of MSSA and MRSA isolates, read-out: MIC): ≤ 0.0312 µg/mL
fold increase in MIC in the presence of 4% albumin (S. aureus; across the strain panel): 2- to 8 fold
inhibition at 10 µM (CYP2C9): 16.8%
MIC (S. dysgalactiae; 10238, read-out: MIC): ≤ 0.03 µg/mL
MIC (S. dysgalactiae; 13759, read-out: MIC): ≤ 0.03 µg/mL
MIC (S. dysgalactiae; 13762, read-out: MIC): ≤ 0.03 µg/mL
MIC (S. dysgalactiae; 81251, read-out: MIC): ≤ 0.03 µg/mL
MIC (S. dysgalactiae; 81553): 0.125 µg/mL (≈ 0.276 µM)
MIC (S. dysgalactiae; 84143, read-out: MIC): 0.06 µg/mL (≈ 0.132 µM)
MIC (S. dysgalactiae; 84557, read-out: MIC): ≤ 0.03 µg/mL
MIC (S. dysgalactiae; 84574, read-out: MIC): 0.06 µg/mL (≈ 0.132 µM)
MIC (S. dysgalactiae; n = 8, read-out: modal MIC): ≤ 0.03 µg/mL
MIC range (S. dysgalactiae; n = 8): ≤ 0.03 to 0.125 µg/mL
% Inhibition (AR (h)): 3.169%
MIC (K. pneumoniae; M6): 2 µg/mL (≈ 4.41 µM)
MIC (K. pneumoniae; NCTC13368, NCTC 13368): 16 µg/mL (≈ 35.3 µM)
inhibition at 10 µM (CYP2C8): 13.4%
